The values that follow come from ChEMBL document CHEMBL1126459, “Substituted Benzamides with Conformationally Restricted Side Chains. 3. Azabicyclo[x.y.0] derivatives as gastric prokinetic agents” (Bioorg Med Chem Lett, 1992).

pIC50: −log10 of the molar value. Activity calls are given as the source filed them. The calls are words filed in the database; no cut-off is given here. A value given as a limit tells only on which side of the number the result lay.

By ED50 is commonly meant the dose that gives a 50% effect, or the effect in half of the subjects. One may read the pIC50 as the negative decadic logarithm of the IC50, by convention in mol/L. Read a low pIC50 as a high IC50.

The subject of test [1] is Rattus norvegicus. In words: Prokinetic activity expressed as stimulation of intragastric pressure in rat at the lowest active dose in mg/kg on subcutaneous administration. In kind it is functional.
For the next test, the system named is Mus musculus. In words: Dopamine antagonist activity expressed as inhibition of apomorphine-induced climbing in mice, subcutaneous administration. In kind it is functional.
Test [2] is described as follows: Selectivity at Dopamine receptors compared to 5-HT receptors. In kind it is functional.
For test [3], the system named is Rattus norvegicus. Kind of test: Antagonist activity against 5-HT3 receptor was assessed from ability to inhibit the 5-HT -induced bradycardia when dose given intravenously; inactive up to 1 mg/kg. The class given is functional, organism-based. More on the design: dose 1 mg/kg.
A further test addresses D(2) dopamine receptor (Rattus norvegicus, UniProt P61169). Kind of test: Compound was tested against Dopamine receptor D2 by displacement of [125I]iodosulpiride radioligand from rat D2 clones. For orientation: Displacement assays read how much labelled ligand stays bound in the presence of the test substance.
Setting [4] is: Mus musculus, sc, read-out: ED50.

Chain of D(2) dopamine receptor (P61169 whole entry): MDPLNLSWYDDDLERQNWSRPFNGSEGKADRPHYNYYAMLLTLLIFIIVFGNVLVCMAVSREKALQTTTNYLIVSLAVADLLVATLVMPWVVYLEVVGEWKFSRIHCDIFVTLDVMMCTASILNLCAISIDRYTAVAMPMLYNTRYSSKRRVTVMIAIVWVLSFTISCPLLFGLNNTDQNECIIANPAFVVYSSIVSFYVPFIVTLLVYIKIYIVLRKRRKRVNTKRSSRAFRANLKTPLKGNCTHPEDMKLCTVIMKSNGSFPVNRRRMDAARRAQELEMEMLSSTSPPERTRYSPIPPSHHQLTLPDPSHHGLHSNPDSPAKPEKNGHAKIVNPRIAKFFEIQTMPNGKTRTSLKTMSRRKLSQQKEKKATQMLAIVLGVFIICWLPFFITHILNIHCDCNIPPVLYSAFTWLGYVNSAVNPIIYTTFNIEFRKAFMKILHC

In the case of `COc1cc(N)c(Cl)cc1C(=O)NC1CC2CCCCN2C1` (single isomer, unassigned; form 1), in the test on Rattus norvegicus [1], the Activity was greater than 10 mg/kg. In addition, the ED50 in the test with Mus musculus was greater than 10 mg/kg. In the test on Rattus norvegicus [1], `COc1cc(N)c(Cl)cc1C(=O)NC1CCN2CCCC2C1` (stereo in doubt; 9 (Ax)) [listing 1 of 2 here] displayed an Activity of 0.2 mg/kg. The molecule further had an ED50 in the test on Mus musculus of 12 mg/kg. For the molecule `COc1cc(N)c(Cl)cc1C(=O)NC1CCN2CCCC2C1` (stereo in doubt; 9 (Ax)) [listing 2 of 2 here], the Ratio in test [2] was found to be 60. In turn, `COc1cc(N)c(Cl)cc1C(=O)NCC1CCC2CCCCN2C1` (centres undefined) yielded an Activity with Rattus norvegicus [1] of 5 mg/kg. On the same count and under the same terms, to `COc1cc(N)c(Cl)cc1C(=O)NC1CCN2CC(C)CCC2C1` (stereo in doubt; 18) belongs 5 mg/kg. In the test on Rattus norvegicus [1], `COc1cc(N)c(Cl)cc1C(=O)NC1CC(C)N2CCCC2C1` (stereo in doubt; 30) showed an Activity greater than 1 mg/kg. In addition, in the test with Mus musculus, the ED50 is greater than 50 mg/kg. As for `COc1cc(N)c(Cl)cc1C(=O)NC1CCN2CCCCC12` (stereo in doubt) [listing 1 of 2 here], the Ratio in test [2] was 1.8. In the test with Rattus norvegicus [1], `CCCC1CCCC2CC(NC(=O)c3cc(Cl)c(N)cc3OC)CCN12` (centres undefined) yielded an Activity of 1 mg/kg. Besides, the ED50 in the test on Mus musculus (setting [4]) was greater than 10 mg/kg. Also, in test [2], the Ratio was greater than 10. `COc1cc(N)c(Cl)cc1C(=O)NC1CCCN2CCCC12` (stereo in doubt; 11 (Ax)) [listing 1 of 2 here] gave an Activity in the test with Rattus norvegicus [1] of 0.5 mg/kg. The molecule also yielded an ED50 in the test with Mus musculus of 0.1 mg/kg. Turning to `COc1cc(N)c(Cl)cc1C(=O)NCC1CCC2CCCCN21` (single isomer, unassigned) [listing 1 of 2 here], in the test with Rattus norvegicus [1], the Activity is 0.2 mg/kg. Also, the ED50 in the test on Mus musculus (setting [4]) stood at 15 mg/kg. Take `COc1cc(N)c(Cl)cc1C(=O)NC1CC(C)N2CCCC2C1` (stereo in doubt; 28) [listing 1 of 2 here]: the Activity in the test with Rattus norvegicus [1] is 1 mg/kg. Further, in the test with Mus musculus, the ED50 was found to be 50 mg/kg.

In the case of `COc1cc(N)c(Cl)cc1C(=O)NC1CCCN2CCCC12` (stereo in doubt; 10 (Eq)), in the test on Rattus norvegicus [1], the Activity is greater than 5 mg/kg. The ED50 with Mus musculus stood at 3.5 mg/kg. As for `COc1cc(N)c(Cl)cc1C(=O)NC1CCC2CCCCN2CC1` (centres undefined), the Activity with Rattus norvegicus [1] was greater than 25 mg/kg. The ED50 in the test on Mus musculus (setting [4]) was greater than 50 mg/kg. `COc1cc(N)c(Cl)cc1C(=O)NC1CCN2CCCC2C1` (stereo in doubt; 8 (Eq)) [listing 1 of 2 here] registered an Activity in the test on Rattus norvegicus [1] of 5 mg/kg. Besides, the ED50 in the test with Mus musculus (setting [4]) was found to be 6 mg/kg. In the test with Mus musculus, `COc1cc(N)c(Cl)cc1C(=O)NC1CC(C)N2CCCC2C1` (stereo in doubt; 29) [listing 1 of 2 here] returned an ED50 of 34 mg/kg. Take `COc1cc(N)c(Cl)cc1C(=O)NC1CC(C)N2CCCC2C1` (stereo in doubt; 27) [listing 1 of 2 here]: the Ratio in test [2] was determined as 10. Regarding `COc1cc(N)c(Cl)cc1C(=O)NC1CC(C)N2CCCC2C1` (stereo in doubt; 29) [listing 2 of 2 here], the Ratio in test [2] turned out to be 34. In the case of `COc1cc(N)c(Cl)cc1C(=O)NC1CC(C)N2CCCCC2C1` (stereo in doubt; 25), in the test on Rattus norvegicus [1], the Activity was greater than 1 mg/kg. Besides, the ED50 in the test with Mus musculus (setting [4]) was greater than 30 mg/kg.

`COc1cc(N)c(Cl)cc1C(=O)NCC1CCC2CCCCN21` (stereo in doubt) came in with an Activity in the test with Rattus norvegicus [1] greater than 1 mg/kg. In the test with Mus musculus, this molecule returned an ED50 of 20 mg/kg. With `COc1cc(N)c(Cl)cc1C(=O)NC1CC2CCCCN2C1` (single isomer, unassigned; form 2), in the test on Mus musculus, the ED50 worked out at 0.1 mg/kg. As to `COc1cc(N)c(Cl)cc1C(=O)NC1CCN2CCCCC12` (single isomer, unassigned) [listing 1 of 2 here], the Ratio in test [2] worked out at 0.4.

Molecule `COc1cc(N)c(Cl)cc1C(=O)NC1CCN2CCCC2(C)C1` (centres undefined) had an Activity in the test with Rattus norvegicus [1] greater than 1 mg/kg. Also, the ED50 in the test with Mus musculus (setting [4]) was greater than 30 mg/kg.

As to `COc1cc(N)c(Cl)cc1C(=O)NC1CCN2C(CCCC2c2ccccc2)C1` (stereo in doubt; 21), the ED50 in the test with Mus musculus (setting [4]) is 5 mg/kg.

For `COc1cc(N)c(Cl)cc1C(=O)NCC1CC2CCCCN2C1` (centres undefined), in the test on Rattus norvegicus [1], the Activity is greater than 25 mg/kg. Also, the result in the test with Rattus norvegicus [3] was inactive.

For the molecule `COc1cc(N)c(Cl)cc1C(=O)NCC1CCCN2CCCCC12` (single isomer, unassigned), the Activity in the test on Rattus norvegicus [1] was greater than 25 mg/kg.

As for `COc1cc(N)c(Cl)cc1C(=O)NC1CCCN2CCCCC2C1` (single isomer, unassigned; form 2) [listing 1 of 2 here], in the test on Mus musculus, the ED50 came to 38 mg/kg. Still for that read-out and setting: to `COc1cc(N)c(Cl)cc1C(=O)NC1CC(C)N2CCCC2C1` (stereo in doubt; 27) [listing 2 of 2 here] belongs 10 mg/kg.

Consider `COc1cc(N)c(Cl)cc1C(=O)NC1CCN2CCCC2C1` (stereo in doubt; 8 (Eq)) [listing 2 of 2 here], for which the Ratio in test [2] was 1.2. As for `COc1cc(N)c(Cl)cc1C(=O)NC1CCN2C(C)CCCC2C1` (stereo in doubt; 2) [BRL-20627], the ED50 in the test with Mus musculus was 25 mg/kg. `COc1cc(N)c(Cl)cc1C(=O)NC1CCN2CCCC12` (centres undefined) registered an Activity in the test on Rattus norvegicus [1] of 0.5 mg/kg. In addition, the ED50 in the test on Mus musculus (setting [4]) came out at 7.5 mg/kg. For the same molecule, the Ratio in test [2] came to 15. As for `COc1cc(N)c(Cl)cc1C(=O)NC1CC(C)N2CCCC2C1` (stereo in doubt; 28) [listing 2 of 2 here], in test [2], the Ratio worked out at 50.

As for `COc1cc(N)c(Cl)cc1C(=O)NCC1CCC2CCCCN21` (single isomer, unassigned) [listing 2 of 2 here], the Ratio in test [2] came to 75.

As for `COc1cc(N)c(Cl)cc1C(=O)NC1CCN2C(C)CCCC2C1` (stereo in doubt; 2), the Ratio in test [2] was 50. Turning to `COc1cc(N)c(Cl)cc1C(=O)NC1CCN2C(CCCC2c2ccccc2)C1` (stereo in doubt; 22), the Activity with Rattus norvegicus [1] was greater than 5 mg/kg. Moreover, the ED50 with Mus musculus worked out at 5 mg/kg. In the test on Rattus norvegicus [1], `COc1cc(N)c(Cl)cc1C(=O)NC[C@H]1CCC2CCCCN2C1` (some centres undefined) had an Activity of 0.2 mg/kg. The outcome with Rattus norvegicus [3] was inactive. For the same molecule, the ED50 in the test on Mus musculus (setting [4]) is greater than 25 mg/kg. At D(2) dopamine receptor, the pIC50 is 5.41. The Ratio in test [2] was greater than 125.

In turn, `COc1cc(N)c(Cl)cc1C(=O)NC1CCN2C(C)CCCC2C1` (stereo in doubt; 19) [BRL-20627] came in with an Activity with Rattus norvegicus [1] greater than 5 mg/kg. `COc1cc(N)c(Cl)cc1C(=O)NC1CCN2C(C)CCCC2C1` (stereo in doubt) [BRL-20627] gave an Activity with Rattus norvegicus [1] of 0.5 mg/kg. The ED50 in the test with Mus musculus (setting [4]) was 25 mg/kg. With `COc1cc(N)c(Cl)cc1C(=O)NC1CCCN2CCCCC2C1` (single isomer, unassigned; form 1) [listing 1 of 2 here], in test [2], the Ratio is greater than 50. `COc1cc(N)c(Cl)cc1C(=O)NC1CCN2CCCCC12` (single isomer, unassigned) [listing 2 of 2 here] registered an Activity in the test on Rattus norvegicus [1] of 0.5 mg/kg. In the test on Mus musculus, this molecule had an ED50 of 0.2 mg/kg. On to `CCN(CC)CCNC(=O)c1cc(Cl)c(N)cc1OC` [METOCLOPRAMIDE], for which, in the test with Rattus norvegicus [1], the Activity amounted to 1 mg/kg. In addition, the ED50 with Mus musculus (setting [4]) came out at 0.8 mg/kg. In addition, the Ratio in test [2] was found to be 0.8. As for `COc1cc(N)c(Cl)cc1C(=O)NC1CCCN2CCCC12` (stereo in doubt; 11 (Ax)) [listing 2 of 2 here], in test [2], the Ratio was 0.2.

For the molecule `COc1cc(N)c(Cl)cc1C(=O)NC1CCN2C(C)CCCC2C1` (stereo in doubt), the Ratio in test [2] is 50. Consider `COc1cc(N)c(Cl)cc1C(=O)NC1CCCN2CCCCC2C1` (single isomer, unassigned; form 2) [listing 2 of 2 here], for which the Ratio in test [2] worked out at 38. For `COc1cc(N)c(Cl)cc1C(=O)NC1CCN2CCCCC12` (stereo in doubt) [listing 2 of 2 here], the Activity in the test on Rattus norvegicus [1] worked out at 1 mg/kg. In the test with Mus musculus, this molecule displayed an ED50 of 1.8 mg/kg. The molecule `COc1cc(N)c(Cl)cc1C(=O)NC1CCN2C(C)CCC2C1` (centres undefined) came in with an Activity in the test on Rattus norvegicus [1] of 0.5 mg/kg. The ED50 with Mus musculus (setting [4]) is 15 mg/kg. For the same molecule, the Ratio in test [2] is 30.

Regarding `COc1cc(N)c(Cl)cc1C(=O)NC1CC(C)N2CCCCC2C1` (stereo in doubt; 23), the Activity in the test with Rattus norvegicus [1] is greater than 5 mg/kg.

Consider `COc1cc(N)c(Cl)cc1C(=O)NC1CCCN2CCCCC2C1` (single isomer, unassigned; form 1) [listing 2 of 2 here], for which, in the test on Rattus norvegicus [1], the Activity was 1 mg/kg. Moreover, the ED50 in the test with Mus musculus (setting [4]) is greater than 50 mg/kg. For `COc1cc(N)c(Cl)cc1C(=O)NC1CCN2CC(C)CCC2C1` (stereo in doubt; 17), in that order: greater than 5 mg/kg and greater than 10 mg/kg.
